# Values quoted from earlier work, collected in publication PMC11547388, “Toxicokinetics and Tissue Distribution of the Hepatotoxic Triterpenoid Saponin Pterocephin A in Rats Using the Ultra-Performance Liquid Chromatography–Tandem Mass Spectrometry (UPLC-MS/MS) Method” (Molecules, 2024).
# Design: method as in PMID 37253396
# Details: in vivo, HPLC-QQQ-MS/MS
smiles,measurement,value
"C=C(C)[C@@H]1CC[C@]2(C(=O)O[C@@H]3O[C@H](CO[C@@H]4O[C@H](CO)[C@@H](O[C@@H]5O[C@@H](C)[C@H](O)[C@@H](O)[C@H]5O)[C@H](O)[C@H]4O)[C@@H](O)[C@H](O)[C@H]3O)CC[C@]3(C)[C@H](CC[C@@H]4[C@@]5(C)CC[C@H](O[C@@H]6OC[C@H](O)[C@H](O)[C@H]6O[C@@H]6O[C@@H](C)[C@H](O)[C@@H](O)[C@H]6O)[C@@](C)(CO)[C@@H]5CC[C@]43C)[C@@H]12 [AB4, anemoside B4]",bioavailability,less than 1%
